Assay results published in patent US9045415B2, “Targeting of EWS-FLI1 as anti-tumor therapy” (Georgetown University, priority 2006, dated 2015).
Blank lines part the entries; values can stand above or below the molecule they belong to.

Legend:
EWS-FLI1 = experiment: SPR displacement assay of E9R from EWS-FLI1; type: binding
Source text: FIG. 31 provides data showing a small molecule binding to EWS-FLI1 and displaces E9R from EWS-FLI1. […] Aromatic functionalization produced YK-4-279 a para-methoxy derivative of NSC635437. […] A FLI1 antibody complexed EWS-FLI1 and precipitated it from the solution.
An aromatic optimization strategy was used to design analogs to improve upon the activity of NSC635437.

ES925 = experiment: Cell growth, primary ESFT line ES925; type: cell-based; conditions: Homo sapiens, 72 h; 3 days; read-out: anti-proliferative IC50
Procedure: (§1) FIG. 33 provides data showing YK-4-279 is potent and specific inhibitor of ESFT. […] Cell number was measured by MTT or WST reduction after seven days in culture. […] FIG. 33D cell lines expressing EWS-FLI1 compared to non-EWS-FLI1 malignant cell lines following 3 days in culture to establish the IC50 using WST assay. […] Graph plots level of fluorescence in treated divided by untreated lysate. […] Scale bar equals 200 μm.

[1] = system: cyclin D levels in four non-EWS-FLI1 containing cell lines; experiment: Cyclin D immunoblot, non-EWS-FLI1 containing cell lines; type: cell-based; conditions: 10 μM overnight
[2] = system: non-EWS-FLI1 cancer cell lines and non-transformed cell lines (HFK, HEC, HEK293); experiment: Caspase-3 activity, non-EWS-FLI1 cancer and non-transformed cell lines; type: cell-based; conditions: 10 μM, 24 hours
Procedure: as §1
(§2) Cells were treated for 24 hours with 10 μM YK-4-279. The Caspase-3 substrate DEVD-AMC was incubated with equal amounts of protein lysate and fluorescence from cleaved substrate measured in a fluorimeter. TC32 and non-transformed cells HEK-293, HFK, and HEC were treated for 6 hours with high dose (50 μM) YK-4-279. DAPI stained cells were photographed at 600× using inverted fluorescence microscope.

GUES1 = experiment: Cell growth, primary ESFT line GUES1; type: cell-based; conditions: Homo sapiens, 72 h; 3 days; read-out: anti-proliferative IC50
Procedure: as §1

[3] = system: cell lines that lack EWSFLI1; experiment: Cell growth (WST), cell lines that lack EWS-FLI1; type: cell-based; conditions: 72 h, 3 days
Procedure: as §1

[4] = system: cyclin D levels in TC32 cells; experiment: Cyclin D immunoblot, TC32 cells; type: cell-based; conditions: TC32 cells treated for 14 hours
NFκB responsive promoter = experiment: NFκB responsive reporter in COS7 cells activated with PMA; type: cell-based; conditions: after PMA
Procedure: FIG. 38A provides data showing COST cells transfected with an NFκB reporter construct followed by stimulation with PMA. Cells were treated with YK-4-279 following PMA treatment. Cell lysates were analyzed for NFκB induced luciferase activity as standardized to LTR activated renilla luciferase.

panel of ESFT cell lines = experiment: Cell growth (WST), panel of ESFT cell lines; type: cell-based; conditions: 72 h, 3 days
Procedure: as §1

[5] = system: non-transformed HEK293 cells; experiment: Cell growth, HEK293; type: cell-based; conditions: TC32 vs HEK293
Procedure: as §1

HEK293, HFK, and HEC = experiment: Nuclear fragmentation (DAPI), non-transformed cells; type: cell-based; conditions: 50 μM, 6 hours
Procedure: as §2

[6] = molecular target: T1, EWS-FLI1 and RHA in TC32 cells (Homo sapiens, UniProt Q01543+Q01844); experiment: Co-precipitation of RHA with EWS-FLI1 from treated TC32 cells; type: cell-based
T1 construct: endogenous in cells; host or cells: TC32 (ESFT cell line)
Procedure: FIG. 32 provides data showing YK-4-279 reduces EWS-FLI1 functional activity. FIG. 32A concerns TC32 cells that were treated with YK-4-279 and resolved protein lysates and that were immunoblotted for co-precipitated RHA (top), EWS-FLI1 (middle), or total RHA (bottom).
Protein lysates and immunoprecipitations were performed as previously published (Uren et al (2005)). Recombinant GST-RHA (647-1075) was prepared from crude bacterial extracts without further purification.

ESFT cell line CHP-100 = experiment: CHP-100 tumors in nude mice treated with YK-4-275; type: in vivo; conditions: treated for 4 days when tumors palpable
Procedure: Nude mice were inoculated with ESFT cell line CHP-100. When tumors were palpable, animals were treated with YK-4-275 (NSC635437) for 4 days. Curves show tumor volumes over time.

[7] = system: neuroblastoma SKNAS cells; experiment: Monolayer cell growth, neuroblastoma; type: cell-based; conditions: SK-N-AS, 72 hours continuous presence
Source text: FIGS. 8A-E show E9RP inhibits ESFT cell growth. In FIGS. 8A and 8B, E9RP is the peptide region of RHA (SEQ ID NO:29) fused to the Penetratin peptide (from the Antennapedia homeodomain; SEQ ID NO:34) and contains amino-terminal fluorescein (FITC). […] Neither lipids nor electricity were used for transduction of peptides into cells. Confocal microscopy identified peptide throughout cells with nuclear uptake. Nuclear uptake was confirmed by DAPI staining. […] Cell lines were placed in 96-well plates with either vehicle alone (●), or E9RP (10 μM) on days 0, 3 and 5 (▴). No lipid or other transfection method was utilized. This represents two experiments with similar results. FIG. 8D depicts dose response of ESFT 1 to either wild-type or single amino-acid mutant peptides. (▪) wild-type E9RP, (E9R (SEQ ID NO:29) fused to the Penetratin peptide (SEQ ID NO:34)), (▾)(E9RP (P2A peptide (SEQ ID NO:30) fused to the Penetratin peptide (SEQ ID NO:34)), (▴)E9RP (D5A peptide (SEQ ID NO:31) fused to the Penetratin peptide (SEQ ID NO:34)). Growth normalized to treating cells with the 16 aa Antp sequence alone (SEQ ID NO:34). FIG. 8E is a comparison of wild-type versus mutant peptides in ESFT and NB cells.
In FIG. 13A, recombinant EWS-FLI1 was treated with NSC635437 for 30 minutes. GST-RHA (630-1020) was added and the complexes were then precipitated with antibody to EWS-FLI1 and Protein G beads. Resolved complexes showing the immunoprecipitated complex control without compound are in lanes 3 (0.1% DMSO) and 5 (0.01% DMSO). […] ESFT TC32 (◯) and neuroblastoma SK-N-AS (▪) were grown for 72 hours in the continuous presence of NSC635437. Cells were incubated in MTT reagent for 4 hours and the dried precipitate was dissolved isopropanol and the absorbance read at 570 nm. Each cell line was standardized to the growth of the DMSO control.
FIG. 30 provides data to show E9R peptide prevents EWS-FLI1 binding to RHA with specific detrimental effects upon ESFT growth and transformation. […] Scale bar equals 20 μm. […] Only expression of EGFP-E9R in TC71 reduced anchorage independent growth. […] Scale bar equals 20 μm.

T1 sequence (Q01844+Q01543 fused): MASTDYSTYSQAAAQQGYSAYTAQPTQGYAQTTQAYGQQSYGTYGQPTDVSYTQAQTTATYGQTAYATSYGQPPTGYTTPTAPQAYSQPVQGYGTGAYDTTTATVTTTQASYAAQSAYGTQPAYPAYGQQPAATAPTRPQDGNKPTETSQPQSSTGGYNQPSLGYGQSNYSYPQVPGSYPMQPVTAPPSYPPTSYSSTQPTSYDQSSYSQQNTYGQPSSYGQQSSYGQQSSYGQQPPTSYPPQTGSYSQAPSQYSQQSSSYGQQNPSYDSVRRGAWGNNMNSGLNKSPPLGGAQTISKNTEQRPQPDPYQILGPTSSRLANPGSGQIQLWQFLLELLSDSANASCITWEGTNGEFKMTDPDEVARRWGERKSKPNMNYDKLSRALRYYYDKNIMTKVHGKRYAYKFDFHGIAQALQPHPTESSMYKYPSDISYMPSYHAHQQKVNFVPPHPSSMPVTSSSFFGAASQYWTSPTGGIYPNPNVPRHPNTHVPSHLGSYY

Compound: COc1ccc(C(=O)CC2(O)C(=O)Nc3c(Cl)ccc(Cl)c32)cc1 (centres unmarked) [YK-4-279, 4,7-Dichloro-3-hydroxy-3-[2-(4-methoxyphenyl)-2-oxoethyl]-1,3-dihydro-2H-indol-2-one]
binding of E9R to EWS-FLI1 (EWS-FLI1; 32 μM E9R with 10 μM YK-4-279): 5 R.U.
binding of E9R to EWS-FLI1 (EWS-FLI1; 64 μM E9R with 10 μM YK-4-279): 7 R.U.
IC50 (ES925): 1000 nM
cyclin D levels [1]: did not affect cyclin D levels
apoptosis (caspase-3 activation) [2]: none
IC50 (GUES1): 8000 nM
IC50 [3]: > 25000 nM
cyclin D levels [4]: nearly eliminated cyclin D levels
NFκB responsive promoter activity (NFκB responsive promoter): did not affect the NFκB responsive promoter
IC50 (panel of ESFT cell lines): 500 to 2000 nM
difference in IC50, ESFT cells compared to HEK293 [5]: 10 fold
cell death (nuclear fragmentation) (HEK293, HFK, and HEC): no cell death
EWS-FLI1 and RHA protein levels [6]: did not directly affect EWSFLI1 nor RHA levels
EWS-FLI1/RHA association in treated ESFT cells ([6]; by 10 μM): dissociation of EWS-FLI1 from RHA

melting point: 194 to 196 °C
Compound: O=C(CC1(O)C(=O)Nc2c(Cl)ccc(Cl)c21)c1ccc(Cl)cc1 (centres unmarked) [NSC635437, 4,7-Dichloro-3-[2-(4-chlorophenyl)-2-oxoethyl]-3-hydroxyl-1,3-dihydro-2H-indol-2-one]
tumor growth (ESFT cell line CHP-100): inhibition of tumor growth
cell growth (MTT) [7]: not neuroblastoma cell growth
